We go through 64 compounds from ChEMBL document CHEMBL1145614, “Antagonists of the human adenosine A2A receptor. Part 3: Design and synthesis of pyrazolo[3,4-d]pyrimidines, pyrrolo[2,3-d]pyrimidines and 6-arylpurines” (Bioorg Med Chem Lett, 2008).

The term pKi denotes the Ki on a negative log10 scale, so that one unit is a factor of ten. Low readings indicate a large Ki, high ones a small Ki.

pKi: −log10 of the molar value. Activity calls are given as the source filed them.

For experiment [1], the system named is Mus musculus. Nature of the experiment: Reversal of haloperidol-induced hypolocomotion in mouse at 30 mg/kg, ip. The class given is functional, organism-based. On the set-up: dose 30 mg/kg.
The next experiment concerns the target Adenosine receptor A2a (Homo sapiens, UniProt P29274).
In experiment [2] the test system is Mus musculus. Nature of the experiment: Reversal of haloperidol-induced hypolocomotion in mouse at 30 mg/kg, po. More on the design: dose 30 mg/kg. It counts as functional, organism-based.
For experiment [3], the system named is Mus musculus. Nature of the experiment: Reversal of haloperidol-induced hypolocomotion in po dosed mouse. The class given is functional. The settings on record: read-out: MED.
The test system of experiment [4] is Mus musculus. Nature of the experiment: Reversal of haloperidol-induced hypolocomotion in mouse at 1 mg/kg, po. The class given is functional, organism-based. More on the design: dose 1 mg/kg.
Experiment [5] concerns Mus musculus. Nature of the experiment: Reversal of haloperidol-induced hypolocomotion in mouse at 10 mg/kg, ip. The class given is functional, organism-based. More on the design: dose 10 mg/kg.
Experiment [6] relates to Mus musculus. Nature of the experiment: Reversal of haloperidol-induced hypolocomotion in ip dosed mouse. It counts as functional. The conditions noted are these: read-out: MED.
The test system of experiment [7] is Mus musculus. Nature of the experiment: Reversal of haloperidol-induced hypolocomotion in mouse at 10 mg/kg, po. It counts as functional, organism-based. More on the design: dose 10 mg/kg.

Sequence of Adenosine receptor A2a (P29274 whole entry): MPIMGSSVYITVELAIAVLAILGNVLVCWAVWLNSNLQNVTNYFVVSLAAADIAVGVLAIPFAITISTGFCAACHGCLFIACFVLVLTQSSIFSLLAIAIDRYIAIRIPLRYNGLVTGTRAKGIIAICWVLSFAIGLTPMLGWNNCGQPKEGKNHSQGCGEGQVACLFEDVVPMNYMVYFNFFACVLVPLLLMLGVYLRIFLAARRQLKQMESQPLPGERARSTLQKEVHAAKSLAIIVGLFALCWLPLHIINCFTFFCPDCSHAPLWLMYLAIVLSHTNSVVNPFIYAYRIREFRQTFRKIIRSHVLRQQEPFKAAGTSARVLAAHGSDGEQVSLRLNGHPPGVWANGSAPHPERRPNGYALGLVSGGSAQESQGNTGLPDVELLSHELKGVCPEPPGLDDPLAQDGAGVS
Description for Adenosine receptor A2a: Binding affinity at human adenosine A2A receptor

In the case of `Nc1nc(-c2ccco2)c2cnn(Cc3ccc(C(F)(F)F)cc3)c2n1`, the outcome in the experiment on Mus musculus [1] was inactive.
`Nc1nc(-c2ccco2)c2cnn(Cc3ccccc3F)c2n1`: the result in the experiment with Mus musculus [1] was Active. On Adenosine receptor A2a, the pKi is 8.40.
Regarding `Nc1nc(-c2ccco2)c2ncn(C(=O)NCc3ccc(F)cc3)c2n1`, in the experiment on Mus musculus [1], the result was Active.
`CN(C)c1nc(-c2ccco2)c2ncn(C(=O)NCc3ccccc3)c2n1`: the result in the experiment on Mus musculus [1] was inactive. At Adenosine receptor A2a, this compound gave a pKi of 7.64.
As to `C[C@H](NC(=O)n1cnc2c(-c3ccco3)nc(N)nc21)c1ccccc1`, the result in the experiment on Mus musculus [1] was Active.
Regarding `CS(=O)(=O)c1ccc(Cn2ncc3c(-c4ccco4)nc(N)nc32)cc1`, in the experiment on Mus musculus [1], the result was inactive. This compound showed a pKi on Adenosine receptor A2a of 6.47.
`Nc1nc(-c2ccco2)c2cn[nH]c2n1`: the outcome in the experiment on Mus musculus [1] was Active. This compound had a pKi at Adenosine receptor A2a of 7.32.
With `Nc1nc(-c2ccco2)c2nc[nH]c2n1`, the outcome with Mus musculus [1], in the experiment on Mus musculus [4] and in the experiment with Mus musculus [5] was Active. Besides, the outcome with Mus musculus [2] was inactive. The minimal effective dose with Mus musculus [3] is 1 mg/kg; in the experiment on Mus musculus [6] it was 10 mg/kg. At Adenosine receptor A2a, this compound had a pKi of 6.58.
With `Nc1nc(-c2ccco2)c2ncn(C(=O)NCc3ccco3)c2n1`, the outcome in the experiment on Mus musculus [1], with Mus musculus [2] and with Mus musculus [7] was Active. For the same compound, the minimal effective dose in the experiment on Mus musculus [3] was 10 mg/kg; in the experiment with Mus musculus [6] it was less than 30 mg/kg.
On to `Nc1nc(-c2cncs2)c2ncn(C(=O)NCc3ccccc3)c2n1`, for which the outcome in the experiment on Mus musculus [1] was Active. In addition, at Adenosine receptor A2a, the pKi is 7.25.
In the same order, the values of `Nc1nc(-c2ccco2)c2cnn(Cc3ccco3)c2n1` are “Active” and 7.44.
Taken in the same sequence, the figures for `Nc1nc(-c2nccs2)c2cnn(Cc3ccccc3F)c2n1` were “inactive” and 7.77.
In the case of `Nc1nc(-c2ccco2)c2cnn(C(=O)NCc3ccccc3)c2n1`, the outcome in the experiment with Mus musculus [1] was Active. At Adenosine receptor A2a, this compound showed a pKi of 9.00.
In turn, `Nc1nc(-c2cccs2)c2cnn(Cc3ccccc3F)c2n1` had a pKi at Adenosine receptor A2a of 8.05.
Regarding `Cc1ccc(CNC(=O)n2cnc3c(-c4ccco4)nc(N)nc32)cc1`, the result with Mus musculus [1] was Active.
Consider `Nc1nc(-n2ccnn2)c2cnn(Cc3ccccc3F)c2n1`, for which, in the experiment on Mus musculus [1], the outcome was Active. The pKi at Adenosine receptor A2a was 7.15.
Take `COC(=O)c1cccc(Cn2cnc3c(-c4ccco4)nc(N)nc32)c1`: in the experiment with Mus musculus [1], the outcome was inactive. Moreover, the pKi on Adenosine receptor A2a was 7.35.
Take `Nc1nc(-c2ccco2)c2ncn(C(=O)Nc3ccccc3)c2n1`: the result with Mus musculus [1] was Active. In addition, the pKi at Adenosine receptor A2a was 6.69.
Regarding `Nc1nc(-c2ccco2)c2cnn(Cc3cccc(Cl)c3)c2n1`, the outcome in the experiment on Mus musculus [1] was Active.
On to `Cc1cccc(CNC(=O)n2cnc3c(-c4ccco4)nc(N)nc32)c1`, for which the outcome with Mus musculus [1] and in the experiment on Mus musculus [2] was Active. Further, the minimal effective dose was determined as 30 mg/kg in the experiment with Mus musculus [3] and 1 mg/kg in the experiment on Mus musculus [6].
On to `Nc1nc(-c2ccccn2)c2cnn(Cc3ccccc3F)c2n1`, for which, in the experiment with Mus musculus [1], the outcome was Active.
Regarding `Nc1nc(-c2ccco2)c2ncn(Cc3ccc(C(F)(F)F)cc3)c2n1`, the result in the experiment on Mus musculus [1] was Active.
Regarding `Nc1nc(-c2ccco2)c2cnn(Cc3cccnc3)c2n1`, the outcome in the experiment with Mus musculus [1] was Active. At Adenosine receptor A2a, the pKi was 7.55.
As for `Nc1nc(-c2ccco2)c2ncn(Cc3cccc(Cl)c3)c2n1`, in the experiment on Mus musculus [1], the outcome was inactive. This compound showed a pKi at Adenosine receptor A2a of 8.10.
On to `Nc1nc(-c2ncc[nH]2)c2cnn(Cc3ccccc3F)c2n1`, for which, at Adenosine receptor A2a, the pKi is 5.68.
Regarding `Nc1nc(-c2ccco2)c2cnn(Cc3ccccc3Cl)c2n1`, in the experiment on Mus musculus [1], the result was inactive.
`CSc1nc(-c2ccco2)c2ncn(C(=O)NCc3ccccc3)c2n1`: the outcome in the experiment with Mus musculus [1] was inactive. This compound also gave a pKi on Adenosine receptor A2a of 7.89.
With `COc1cccc(Cn2ncc3c(-c4ccco4)nc(N)nc32)c1`, in the experiment with Mus musculus [1], the outcome was Active.
`Cc1cccc(Cn2ncc3c(-c4ccco4)nc(N)nc32)c1`: the result with Mus musculus [1] was Active. The compound also had a pKi at Adenosine receptor A2a of 8.52.
For `Nc1nc(-c2ccco2)c2cc[nH]c2n1`, in the experiment with Mus musculus [1], the result was Active. The same compound showed a pKi at Adenosine receptor A2a of 6.62.
As to `Nc1nc(-c2ccco2)c2cnn(Cc3cccc([N+](=O)[O-])c3)c2n1`, the outcome in the experiment with Mus musculus [1] was Active.
Consider `Nc1nc(-c2ccco2)c2cnn(CC3CCCCC3)c2n1`, for which, in the experiment on Mus musculus [1], the result was Active. On Adenosine receptor A2a, the pKi was 7.35.
Taken in the same sequence, the figures for `Cc1cccc(Cn2cnc3c(-c4ccco4)nc(N)nc32)c1` were “Active” and 8.22.
As to `Cc1nc(-c2ccco2)c2ncn(C(=O)NCc3ccccc3)c2n1`, the pKi on Adenosine receptor A2a is 6.99.
Same read-out and setting: in the case of `Nc1nc(-c2ccco2)c2ncn(Cc3ccc([N+](=O)[O-])cc3)c2n1` it was 6.43.
Take `Nc1nc(-c2ccco2)c2cnn(Cc3ccccc3)c2n1`: in the experiment on Mus musculus [1], the result was Active. Also, the pKi at Adenosine receptor A2a is 8.52.
Consider `Nc1nc(-c2ccco2)c2ncn(Cc3ccccc3F)c2n1`, for which, in the experiment on Mus musculus [1], the result was Active. At Adenosine receptor A2a, the pKi was 8.30.
Consider `Nc1nc(-c2ccco2)c2ncn(C(=O)NCc3ccccc3)c2n1`, for which the outcome with Mus musculus [1] was Active.
For the compound `C[C@@H](NC(=O)n1cnc2c(-c3ccco3)nc(N)nc21)c1ccccc1`, in the experiment on Mus musculus [1], the result was inactive. For the same compound, the pKi on Adenosine receptor A2a is 7.59.
`Nc1nc(-c2ccco2)c2ncn(Cc3cccc([N+](=O)[O-])c3)c2n1`: the outcome with Mus musculus [1] was inactive. At Adenosine receptor A2a, the pKi was 7.07.
For `Nc1nc(-c2ccco2)c2ncn(Cc3ccccc3)c2n1`, the outcome in the experiment on Mus musculus [1] was Active.
`CS(=O)(=O)c1ccc(Cn2cnc3c(-c4ccco4)nc(N)nc32)cc1`: the pKi on Adenosine receptor A2a is 6.11.
On to `Nc1nc(-c2ccco2)c2cnn(Cc3ccc([N+](=O)[O-])cc3)c2n1`, for which, in the experiment on Mus musculus [1], the outcome was inactive. The compound further had a pKi at Adenosine receptor A2a of 6.92.
On to `Nc1nc(-c2ccco2)c2cnn(Cc3c(F)cccc3F)c2n1`, for which the result with Mus musculus [1] was Active.
Regarding `Nc1nc(-c2ccco2)c2cnn(Cc3ccccc3[N+](=O)[O-])c2n1`, the result with Mus musculus [1] was inactive. In addition, at Adenosine receptor A2a, the pKi is 7.59.
As to `Nc1nc(-c2ccco2)c2ncn(C(=O)NCc3cccs3)c2n1`, the result with Mus musculus [1] and with Mus musculus [2] was Active. The minimal effective dose in the experiment with Mus musculus [3] was 30 mg/kg; in the experiment with Mus musculus [6], less than 30 mg/kg.
As to `Nc1cccc(Cn2cnc3c(-c4ccco4)nc(N)nc32)c1`, the outcome in the experiment on Mus musculus [1] and in the experiment with Mus musculus [2] was Active. The minimal effective dose in the experiment on Mus musculus [3] stood at 30 mg/kg; with Mus musculus [6], 10 mg/kg. On Adenosine receptor A2a, the pKi is 7.64.
For the compound `Nc1nc(-c2ccco2)c2ncn(Cc3cccc(C(=O)O)c3)c2n1`, the pKi on Adenosine receptor A2a was 5.39.
For `Cn1ccnc1-c1nc(N)nc2c1cnn2Cc1ccccc1F`, in the experiment on Mus musculus [1], the outcome was inactive. The same compound gave a pKi on Adenosine receptor A2a of 5.79.
In the case of `Nc1nc(-c2ccco2)c2cnn(Cc3cccc(C(=O)O)c3)c2n1`, in the experiment on Mus musculus [1], the result was inactive. Moreover, on Adenosine receptor A2a, the pKi was 5.88.
With `COc1cccc(Cn2cnc3c(-c4ccco4)nc(N)nc32)c1`, the result in the experiment with Mus musculus [1] was Active.
In the case of `Nc1nc(-c2ccccc2)c2ncn(C(=O)NCc3ccccc3)c2n1`, the result with Mus musculus [1] was Active. This compound gave a pKi at Adenosine receptor A2a of 7.77.
`COC(=O)c1cccc(Cn2ncc3c(-c4ccco4)nc(N)nc32)c1`: the outcome with Mus musculus [1] was Active. For the same compound, on Adenosine receptor A2a, the pKi is 8.40.
With `Nc1nc(-c2ccco2)c2ncn(Cc3c(F)cccc3F)c2n1`, the outcome in the experiment with Mus musculus [1] was Active.
Compound `CN(C)c1nc(-c2ccco2)c2cnn(CCc3ccccc3)c2n1` had a pKi on Adenosine receptor A2a of 5.72.
On to `Nc1nc(-c2ccco2)c2ncn(C(=O)NCCc3ccccc3)c2n1`, for which the result with Mus musculus [1] was Active.
For the compound `OCCNc1nc(-c2ccco2)c2cnn(CCc3ccccc3)c2n1`, the result with Mus musculus [1] was inactive. The pKi at Adenosine receptor A2a was 6.87.
Take `Nc1cccc(Cn2ncc3c(-c4ccco4)nc(N)nc32)c1`: the result in the experiment with Mus musculus [1] was Active.
For `Nc1nc(-c2cccs2)c2ncn(C(=O)NCc3ccccc3)c2n1`, in the experiment with Mus musculus [1], the result was inactive. At Adenosine receptor A2a, this compound had a pKi of 7.89.
Taken in the same sequence, the figures for `Nc1nc(-c2ccco2)c2cnn(CCc3ccccc3)c2n1` were “inactive” and 6.96.
On to `Nc1nc(-c2ccco2)c2cnn(Cc3ccccc3N)c2n1`, for which the result in the experiment on Mus musculus [1] was Active.
The same measure, in the same setting: in the case of `Nc1nc(-c2cc[nH]n2)c2cnn(Cc3ccccc3F)c2n1` it was “Active”.
On to `Nc1nc(-c2ccco2)c2cnn(CCCc3ccccc3)c2n1`, for which the outcome in the experiment on Mus musculus [1] was Active. Moreover, on Adenosine receptor A2a, the pKi is 8.40.
For the compound `Nc1nc(-c2ccco2)c2ncn(C(=O)NCc3ccccc3Cl)c2n1`, in the experiment with Mus musculus [1], the outcome was Active.
